Results published in ChEMBL document CHEMBL1201862, “PubChem BioAssay data set” (2004).
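A five-concentration, 48-hour dose response in 96-well plates underlies each endpoint, interpolated linearly between surrounding concentrations. GI50: concentration for 50% inhibition of growth.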 The source made the active and inactive calls. Cut-off read from the data, not from the text of the source: active = GI50 up to about 1.1 µM and inactive = higher.

Columns and labels:
Experiment in all cases: growth of human tumour cells (NCI), 48 h
RXF 393 = system: RXF 393
COLO 205 = system: COLO 205
ACHN = system: ACHN
UO-31 = system: UO-31
SNB-19 = system: SNB-19
LOX IMVI = system: LOX IMVI
HCT-116 = system: HCT-116
RPMI-8226 = system: RPMI-8226
HCT-15 = system: HCT-15
NCI/ADR-RES = system: NCI/ADR-RES
MDA-N = system: MDA-N
NCI-H522 = system: NCI-H522
A498 = system: A498
UACC-62 = system: UACC-62
CAKI-1 = system: CAKI-1
SK-MEL-5 = system: SK-MEL-5
HOP-62 = system: HOP-62
SF-295 = system: SF-295
Hs-578T = system: Hs-578T
SNB-75 = system: SNB-75

| SMILES | GI50 (RXF 393) | GI50 (COLO 205) | GI50 (ACHN) | GI50 (UO-31) | GI50 (SNB-19) | GI50 (LOX IMVI) | GI50 (HCT-116) | GI50 (RPMI-8226) | GI50 (HCT-15) [µM] | GI50 (NCI/ADR-RES) | GI50 (MDA-N) | GI50 (NCI-H522) | GI50 (A498) | GI50 (UACC-62) | GI50 (CAKI-1) | GI50 (SK-MEL-5) | GI50 (HOP-62) | GI50 (SF-295) | GI50 (Hs-578T) | GI50 (SNB-75) |
| --- | --- | --- | --- | --- | --- | --- | --- | --- | --- | --- | --- | --- | --- | --- | --- | --- | --- | --- | --- | --- |
| N#Cc1c(N)nc2[nH]nc(N)c2c1-c1ccccc1 | 3.78 µM (inactive) | 5.65 µM (inactive) | 4.63 µM (inactive) | 3.56 µM (inactive) | 16.1 µM (inactive) | 3.89 µM (inactive) | 7.29 µM (inactive) | > 24.3 µM (inactive) | 5.41 | 15 µM (inactive) | 6.04 µM (inactive) | 3.72 µM (inactive) | 1.61 µM (inactive) | 2.72 µM (inactive) | 3.2 µM (inactive) | 8.24 µM (inactive) | 27.5 µM (inactive) | 6.04 µM (inactive) | 5.3 µM (inactive) | – |
| CO[C@]12CC(=O)C3(C(C[C@H]4CC5CC[C@H]6C[C@@H](OC(C)=O)CC[C@]6(OC(C)=O)C5C[C@@]43C)C1)C1C[C@H]3[C@@H]4CC[C@H]5C[C@@H](OC(C)=O)CC[C@]5(OC(C)=O)[C@H]4CC[C@]3(C)C12 (stereo not given in full) | – | 40.5 µM (inactive) | > 100 µM (inactive) | > 100 µM (inactive) | 82.8 µM (inactive) | 89.7 µM (inactive) | 42.5 µM (inactive) | 37.2 µM (inactive) | 90.2 | 43.6 µM (inactive) | 98.2 µM (inactive) | – | > 100 µM (inactive) | 84.3 µM (inactive) | > 100 µM (inactive) | 24.4 µM (inactive) | > 100 µM (inactive) | 61.5 µM (inactive) | 71.4 µM (inactive) | > 100 µM (inactive) |
| Cc1sc(NC=C2C(=O)CC(C)(C)CC2=O)nc1-c1ccccc1 | > 100 µM (inactive) | > 100 µM (inactive) | > 100 µM (inactive) | > 100 µM (inactive) | > 100 µM (inactive) | > 100 µM (inactive) | > 100 µM (inactive) | > 100 µM (inactive) | > 100 | > 100 µM (inactive) | > 100 µM (inactive) | 80.5 µM (inactive) | – | > 100 µM (inactive) | > 100 µM (inactive) | > 100 µM (inactive) | > 100 µM (inactive) | > 100 µM (inactive) | > 100 µM (inactive) | > 100 µM (inactive) |
| CO/C=C/C=C(\C#N)C(=O)OC | – | > 100 µM (inactive) | > 100 µM (inactive) | > 100 µM (inactive) | > 100 µM (inactive) | > 100 µM (inactive) | > 100 µM (inactive) | > 100 µM (inactive) | > 100 | > 100 µM (inactive) | > 100 µM (inactive) | > 100 µM (inactive) | > 100 µM (inactive) | > 100 µM (inactive) | > 100 µM (inactive) | > 100 µM (inactive) | > 100 µM (inactive) | > 100 µM (inactive) | > 100 µM (inactive) | 60.3 µM (inactive) |
| CC(C)(C)OC(=O)n1c(-c2ccccc2F)cc(=O)c2cc3c(cc21)OCO3 | – | 0.0942 µM (active) | 0.186 µM (active) | 0.188 µM (active) | 0.145 µM (active) | 0.111 µM (active) | 0.0426 µM (active) | 0.0364 µM (active) | 0.0505 | 0.0231 µM (active) | < 0.01 µM (active) | 0.0267 µM (active) | 0.141 µM (active) | 0.0588 µM (active) | – | 0.0521 µM (active) | 0.0863 µM (active) | 0.05 µM (active) | 0.0407 µM (active) | 0.0318 µM (active) |
| Cc1cc(=O)oc2c(CNC(Cc3ccccc3)C(=O)O)c(O)ccc12 (stereo not given) | > 100 µM (inactive) | > 100 µM (inactive) | > 100 µM (inactive) | 73.3 µM (inactive) | > 100 µM (inactive) | > 100 µM (inactive) | > 100 µM (inactive) | > 100 µM (inactive) | > 100 | > 100 µM (inactive) | > 100 µM (inactive) | > 100 µM (inactive) | – | > 100 µM (inactive) | > 100 µM (inactive) | > 100 µM (inactive) | > 100 µM (inactive) | > 100 µM (inactive) | > 100 µM (inactive) | 82.2 µM (inactive) |
| CC1CC[C@@]2(OC1)OC1C[C@H]3[C@@H]4CCC5CC(O)CC[C@]5(C)[C@H]4C/C(=N\N(C)C)[C@]3(C)C1[C@@H]2C (stereo not given in full) | 16.3 µM (inactive) | 19.9 µM (inactive) | 30.3 µM (inactive) | 33.5 µM (inactive) | 30.1 µM (inactive) | 26.7 µM (inactive) | 23.3 µM (inactive) | 26.9 µM (inactive) | 23.4 | 19.5 µM (inactive) | 19.9 µM (inactive) | – | 23 µM (inactive) | 27.6 µM (inactive) | – | 21.7 µM (inactive) | 16.7 µM (inactive) | – | 28.6 µM (inactive) | – |
| C[C@@H](c1ccccc1)n1c(N)c(C#N)c2ccc([N+](=O)[O-])cc2c1=O | – | 15 µM (inactive) | 14.9 µM (inactive) | 5.12 µM (inactive) | 13.6 µM (inactive) | 14.2 µM (inactive) | 14.4 µM (inactive) | – | 12.9 | 7.1 µM (inactive) | 23.1 µM (inactive) | – | 6.27 µM (inactive) | 13.2 µM (inactive) | 15.1 µM (inactive) | 16.7 µM (inactive) | – | – | 18.2 µM (inactive) | 5.51 µM (inactive) |
| COC(=O)CCC(C)C1CCC2C3C(C[C@H](OC(C)=O)[C@]12C)[C@@]1(C)CCC2(C[C@H]1C[C@H]3OC(C)=O)OOC1(CC[C@]3(C)C4C[C@H](OC(C)=O)[C@]5(C)C(C(C)CCC(=O)OC)CCC5C4[C@H](OC(C)=O)C[C@@H]3C1)OO2 (stereo not given in full) | > 100 µM (inactive) | > 100 µM (inactive) | 33.5 µM (inactive) | 30.9 µM (inactive) | > 100 µM (inactive) | > 100 µM (inactive) | > 100 µM (inactive) | > 100 µM (inactive) | > 100 | > 100 µM (inactive) | > 100 µM (inactive) | > 100 µM (inactive) | – | – | 24 µM (inactive) | > 100 µM (inactive) | > 100 µM (inactive) | 78.7 µM (inactive) | > 100 µM (inactive) | 68.4 µM (inactive) |
| COc1ccc2c(c1)nc1n2C(c2c(F)cccc2Cl)SC1 (stereo not given) | – | 3.98 µM (inactive) | 20.8 µM (inactive) | > 20.2 µM (inactive) | – | 6.64 µM (inactive) | 4.14 µM (inactive) | – | 3.03 | 1.56 µM (inactive) | 1.35 µM (inactive) | – | 5.89 µM (inactive) | 7.26 µM (inactive) | 19.1 µM (inactive) | 3.17 µM (inactive) | – | 2.74 µM (inactive) | 1.69 µM (inactive) | 1.68 µM (inactive) |
| CNC(=S)/C(=N\Nc1[nH]cnc1C(N)=O)C(N)=S | > 100 µM (inactive) | 4.57 µM (inactive) | 5.32 µM (inactive) | 1.61 µM (inactive) | 45.3 µM (inactive) | 0.598 µM (active) | 3.52 µM (inactive) | 1.14 µM (inactive) | 15.1 | 1.36 µM (inactive) | 4.34 µM (inactive) | 10.9 µM (inactive) | – | 3.22 µM (inactive) | 1.71 µM (inactive) | 11.5 µM (inactive) | 19.2 µM (inactive) | 3.36 µM (inactive) | 9.14 µM (inactive) | 6.82 µM (inactive) |
